Measured values taken from the supplement of paper PMC8671470.
Counter-ions that a name gives are not always drawn.

Legend:
Settings in all cases: 72 h
HL-60 [1] = assay: cell viability (% survival relative to DMSO control); higher = less cytotoxic
Procedure, shortened: (§1)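 HL-60 cells in RPMI 1640 with 10% FBS were rescreened against the full library on 384-well plates at five tenfold concentrations, 1–10,000 nM, in duplicate. Each screen was run with DMSO or 100 nM of one of three metabolic inhibitors, for 72 h at 37 °C, 5% CO2. Viability was read by CellTiter-Glo and normalised to DMSO and 10 μM proteasome-inhibitor wells. Where given, area under the curve came from four-parameter log-logistic fits (drc, PharmacoGx).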

[2] = test system: myeloid leukemia patient primary cells Pat.12; assay: cell viability (% survival relative to DMSO control); higher = less cytotoxic
Procedure, shortened: (§2)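 Seventy compounds were pre-printed on 384-well plates at five tenfold concentrations between 1 and 10,000 nM, in duplicate. Thawed mononuclear cells purified by Ficoll from AML or CML patients were added at 10,000 cells/well in RPMI 1640 with 10% FBS for 72 h. Viability by CellTiter-Glo was normalised to DMSO and 10 μM proteasome-inhibitor wells. Where stated, area under the curve was taken from log-logistic fits made with the drc and PharmacoGx R packages, each fit having four parameters.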

[3] = test system: myeloid leukemia patient primary cells Pat.13; assay: as above
Procedure, shortened: as §2

[4] = test system: myeloid leukemia patient primary cells Pat.14; assay: as above
Procedure, shortened: as §2

[5] = test system: myeloid leukemia patient primary cells Pat.15; assay: as above
Procedure, shortened: as §2

[6] = test system: myeloid leukemia patient primary cells Pat.2; assay: as above
Procedure, shortened: as §2

[7] = test system: myeloid leukemia patient primary cells Pat.8; assay: as above
Procedure, shortened: as §2

HL-60 [8] = assay: area under dose-response curve (viability, 1 nM-10 uM) (fraction (0-1)); higher = more sensitive
Procedure, shortened: as §1

[9] = test system: myeloid leukemia patient primary cells Pat.10; assay: area under dose-response curve (viability, 1 nM-10 uM) (fraction (0-1)); higher = more sensitive
Method: (§3)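 AUC (0–1, higher = more sensitive) of the 5-point dose–response (1 nM–10 µM, 72 h, CellTiter-Glo) in primary AML/CML patient mononuclear cells. 0.030103 is the floor for inactive compounds.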

[10] = test system: myeloid leukemia patient primary cells Pat.11; assay: as above
Method: as §3

[11] = test system: myeloid leukemia patient primary cells Pat.13; assay: as above
Method: as §3

[12] = test system: myeloid leukemia patient primary cells Pat.14; assay: as above
Method: as §3

[13] = test system: myeloid leukemia patient primary cells Pat.15; assay: as above
Method: as §3

[14] = test system: myeloid leukemia patient primary cells Pat.1; assay: as above
Method: as §3

[15] = test system: myeloid leukemia patient primary cells Pat.2; assay: as above
Method: as §3

[16] = test system: myeloid leukemia patient primary cells Pat.3; assay: as above
Method: as §3

[17] = test system: myeloid leukemia patient primary cells Pat.4; assay: as above
Method: as §3

[18] = test system: myeloid leukemia patient primary cells Pat.5; assay: as above
Method: as §3

[19] = test system: myeloid leukemia patient primary cells Pat.6; assay: as above
Method: as §3

[20] = test system: myeloid leukemia patient primary cells Pat.7; assay: as above
Method: as §3

[21] = test system: myeloid leukemia patient primary cells Pat.8; assay: as above
Method: as §3

[22] = test system: myeloid leukemia patient primary cells Pat.9; assay: as above
Method: as §3

[23] = test system: myeloid leukemia patient primary cells Pat.12; assay: as above
Method: as §3

C=CCN(C)CCCCCCOc1ccc(C(=O)c2ccc(Br)cc2)c(F)c1.O=C(O)/C=C/C(=O)O [Ro 48-8071 fumarate]
cell viability [%], HL-60 [1]
Settings	0.001 µM	0.01 µM	0.1 µM	1 µM	10 µM
co-treatment: AZD3965 100 nM	99.39	92.3	103	94.9	44.1
co-treatment: DMSO vehicle	99.1	86.3	107	102	75.5
co-treatment: GSK2194069 100 nM	103	68.3	101	104	53
co-treatment: pictilisib 100 nM	113	93.6	99.37	84.2	38.3

Settings	area under dose-response curve, co-treatment: AZD3965 100 nM	area under dose-response curve, co-treatment: DMSO vehicle	area under dose-response curve, co-treatment: GSK2194069 100 nM	area under dose-response curve, co-treatment: pictilisib 100 nM	cell viability, 1 nM [%]	cell viability, 10 nM [%]	cell viability, 100 nM [%]	cell viability, 1000 nM [%]	cell viability, 10000 nM [%]
HL-60 [8]	0.0549	< 0.0301	0.0331	0.112	–	–	–	–	–
[2]	–	–	–	–	96.5	91.5	93.7	82.9	77.6
[3]	–	–	–	–	92.9	98.7	82.6	85.6	51.7
[4]	–	–	–	–	93.2	99.3	91.9	99.6	21
[5]	–	–	–	–	84	94.1	99.4	94.3	56.6
[6]	–	–	–	–	98.4	99.7	97.6	97.1	71.1
[7]	–	–	–	–	78.8	96.9	94.9	92.1	75.8

Settings	area under dose-response curve
[9]	0.146
[10]	0.0457
[11]	0.0673
[12]	0.0802
[13]	< 0.0301
[14]	0.109
[15]	0.0431
[16]	0.576
[17]	0.0305
[18]	0.146
[19]	0.0624
[20]	0.217
[21]	0.0337
[22]	0.13

CN(Cc1cnc2nc(N)nc(N)c2n1)c1ccc(C(=O)N[C@@H](CCC(=O)O)C(=O)O)cc1 [Methotrexate]
cell viability [%], HL-60 [1]
Settings	0.001 µM	0.01 µM	0.1 µM	1 µM	10 µM
co-treatment: AZD3965 100 nM	108	50.6	28	26.3	26.8
co-treatment: DMSO vehicle	101.2	68.4	42.4	32.7	41.2
co-treatment: GSK2194069 100 nM	110	72.4	39	27.9	29.7
co-treatment: pictilisib 100 nM	104	69.8	32.358	27.3	28.1

Settings	area under dose-response curve, co-treatment: AZD3965 100 nM	area under dose-response curve, co-treatment: DMSO vehicle	area under dose-response curve, co-treatment: GSK2194069 100 nM	area under dose-response curve, co-treatment: pictilisib 100 nM	cell viability, 1 nM [%]	cell viability, 10 nM [%]	cell viability, 100 nM [%]	cell viability, 1000 nM [%]	cell viability, 10000 nM [%]
HL-60 [8]	0.618	0.523	0.515	0.544	–	–	–	–	–
[2]	–	–	–	–	> 100	98.1	97.4	87	97.3
[3]	–	–	–	–	96.4	88.3	82.7	58.2	88.5
[4]	–	–	–	–	89	94.6	87.8	22.5	35.6
[5]	–	–	–	–	95.4	89.3	> 100	80.5	91.1
[6]	–	–	–	–	98.8	96.8	98.1	75.3	63.1
[7]	–	–	–	–	76.5	89.1	96.3	70.3	86.1

Settings	area under dose-response curve
[9]	0.294
[10]	< 0.0301
[11]	< 0.0301
[12]	0.306
[13]	< 0.0301
[14]	< 0.0301
[16]	0.469
[17]	< 0.0301
[18]	0.384
[19]	< 0.0301
[20]	0.399
[21]	< 0.0301
[22]	0.526
[23]	< 0.0301

Cc1c2c(=O)n(-c3ccccc3Cl)[nH]c2cc(=O)n1Cc1ccccn1
cell viability [%]
Settings	[2]	[3]	[4]	[5]	[6]	[7]
1 nM	89.5	66.5	28.5	77.3	86.2	79.7
10 nM	97.6	80	69.8	83.4	92.7	92.3
100 nM	99.3	92.6	64.5	81.8	88.6	86.6
1000 nM	88.3	88.9	99.6	95.5	94.6	96.9
10000 nM	92.2	92.5	> 100	93	> 100	75.9

Settings	area under dose-response curve
[9]	0.0358
[10]	< 0.0301
[11]	< 0.0301
[12]	< 0.0301
[13]	< 0.0301
[14]	< 0.0301
[15]	< 0.0301
[16]	< 0.0301
[17]	< 0.0301
[19]	< 0.0301
[20]	< 0.0301
[21]	< 0.0301
[22]	< 0.0301
[23]	< 0.0301

CCN(CCO)CCCC(C)Nc1ccnc2cc(Cl)ccc12 (centres undefined) [Hydroxychloroquine sulfate]
cell viability [%], HL-60 [1]
Settings	0.001 µM	0.01 µM	0.1 µM	1 µM	10 µM
co-treatment: AZD3965 100 nM	91.8	97.2	105	96.7	101
co-treatment: DMSO vehicle	92.3	98.9	101	98.9	99.8
co-treatment: GSK2194069 100 nM	97	101	111	99.5	104
co-treatment: pictilisib 100 nM	86.1	101	109	107	103

HL-60 [8]
Settings	area under dose-response curve
co-treatment: AZD3965 100 nM	< 0.0301
co-treatment: DMSO vehicle	< 0.0301
co-treatment: GSK2194069 100 nM	< 0.0301
co-treatment: pictilisib 100 nM	< 0.0301
